Test results reported in ChEMBL document CHEMBL5512632, “Unlocking the potential of 1,4-naphthoquinones: A comprehensive review of their anticancer properties” (Eur J Med Chem, 2024).
Blank lines part the entries; values can stand above or below the compound they belong to.

What was measured:
[1] = Cytotoxicity against human NCI-H358M cells incubated for 72 hrs by MTT assay; type: functional, cell-based
OVCAR-8 = assay: Cytotoxicity against human OVCAR-8 cells incubated for 72 hrs by MTT assay; type: functional, cell-based; settings: OVCAR-8, 72 h
PC-3M = assay: Cytotoxicity against human PC-3M cells incubated for 72 hrs by MTT assay; type: functional, cell-based
[2] = Antiproliferative activity against human A875 cells assessed as inhibition of cell growth incubated for 24 hrs by MTT reagent based microplate reader assay; type: functional; settings: A875, 24 h
J82 = assay: Cytotoxicity against human J82 cells incubated for 72 hrs by MTT assay; type: functional, cell-based; settings: J82, 72 h
AGS = assay: Cytotoxicity against human AGS cells incubated for 72 hrs by MTT assay; type: functional, cell-based
SK-MES-1 = assay: Cytotoxicity against human SK-MES-1 cells incubated for 72 hrs by MTT assay; type: functional, cell-based; settings: SK-MES-1, 72 h
HL-60 [3] = assay: Cytotoxicity against human HL-60 cells incubated for 72 hrs by MTT reagent based spectrophotometric analysis; type: functional, cell-based; settings: HL-60, 72 h
PC-3 = assay: Cytotoxicity against human PC-3 cells incubated for 72 hrs by MTT reagent based spectrophotometric analysis; type: functional, cell-based; settings: PC-3, 72 h
A2780 = assay: Cytotoxicity against human A2780 cells incubated for 72 hrs by MTT reagent based spectrophotometric analysis; type: functional, cell-based; settings: A2780, 72 h
A549 = assay: Cytotoxicity against human A549 cells incubated for 72 hrs by MTT reagent based spectrophotometric analysis; type: functional, cell-based; settings: A549, 72 h
HL-60 [4] = assay: Cytotoxicity against human HL-60 cells assessed as inhibition of cell growth incubated upto 72 hrs by MTT assay; type: functional, cell-based; settings: HL-60, 72 h
HepG2 [5] = assay: Cytotoxicity against human HepG2 cells assessed as inhibition of cell growth incubated upto 72 hrs by MTT assay; type: functional, cell-based; settings: HepG2, 72 h
SW480 = assay: Cytotoxicity against human SW480 cells assessed as inhibition of cell growth incubated upto 72 hrs by MTT assay; type: functional, cell-based; settings: SW480, 72 h
MCF7 [6] = assay: Cytotoxicity against human MCF7 cells assessed as inhibition of cell growth incubated upto 72 hrs by MTT assay; type: functional, cell-based; settings: MCF7, 72 h
HT-29 = assay: Cytotoxicity against human HT-29 cells assessed as inhibition of cell growth incubated upto 72 hrs by MTT assay; type: functional, cell-based; settings: HT-29, 72 h
RPMI-8226 = assay: Cytotoxicity against human RPMI-8226 cells assessed as inhibition of cell growth incubated for 72 hrs by MTT reagent based colorimetric assay; type: functional; settings: RPMI-8226, 72 h
MCF7 [7] = assay: Cytotoxicity against human MCF7 cells assessed as inhibition of cell growth incubated for 72 hrs by MTT reagent based colorimetric assay; type: functional; settings: MCF7, 72 h
HepG2 [8] = assay: Cytotoxicity against human HepG2 cells assessed as inhibition of cell growth incubated for 72 hrs by MTT reagent based colorimetric assay; type: functional; settings: HepG2, 72 h
HL-60 [9] = assay: Cytotoxicity against human HL-60 cells assessed as reduction in cell growth incubated for 48 hrs by MTT assay; type: functional, cell-based; settings: HL-60, 48 h
[10] = tested on: KATO III stomach cancer cell line; assay: Antiproliferative activity against human KATO III stomach cancer cell line assessed as inhibition of cell growth incubated for 72 hrs by MTS assay; type: functional, cell-based
MCF7 [11] = assay: Antiproliferative activity against human MCF7 cells assessed as inhibition of cell growth incubated for 72 hrs by MTS assay; type: functional, cell-based; settings: MCF7, 72 h
DU-145 = assay: Cytotoxicity against human DU-145 cells incubated for 48 hrs by MTT assay; type: functional, cell-based; settings: DU-145, 48 h
MCF7 [12] = assay: Cytotoxicity against human MCF7 cells incubated for 48 hrs by MTT assay; type: functional, cell-based; settings: MCF7, 48 h
MCF7 [13] = assay: Cytotoxicity against human MCF7 cells incubated for 72 hrs; type: functional, cell-based; settings: MCF7, 72 h
Jurkat = assay: Cytotoxicity against human Jurkat cells incubated for 48 hrs by MTT reagent based spectrophotometric analysis; type: functional, cell-based
HeLa = assay: Cytotoxicity against human HeLa cells incubated for 48 hrs by MTT reagent based spectrophotometric analysis; type: functional, cell-based
[14] = Antiproliferative activity against human TT cells assessed as inhibition of cell growth incubated for 72 hrs by WST-1 assay; type: functional, cell-based
U-937 = assay: Cytotoxicity against human U-937 cells assessed as reduction in cell viability incubated for 72 hrs by resazurin assay; type: functional, cell-based; settings: U-937, 72 h

SMILES: CC1(O)CCC(C#CC2=C(C#CC3CCC(C)(O)CC3)C(=O)c3ccccc3C2=O)CC1 (centres undefined)
IC50 [1]: 2.98 µM | IC50 (OVCAR-8): 2.28 µM | IC50 (PC-3M): 4.28 µM

SMILES: CC(C)=CC[C@@H](OC(=O)CCc1cc2ccccc2[nH]1)C1=CC(=O)c2c(O)ccc(O)c2C1=O
IC50 [2]: 0.005 µM

SMILES: CCCCCC(=O)C1=C(/C(C(=O)OC)=C(\C)NC(Cc2c[nH]c3ccccc23)C(=O)OC)C(=O)c2ccccc2C1=O (centres undefined)
IC50 (J82): 4.5 µM | IC50 (AGS): 9.3 µM | IC50 (SK-MES-1): 5.5 µM

SMILES: O=C1C=C(C(O)C[N+](=O)[O-])C(=O)c2c(O)ccc(O)c21 (centres undefined)
IC50 (HL-60 [3]): 0.14 µM | IC50 (PC-3): 0.09 µM | IC50 (A2780): 0.11 µM | IC50 (A549): 1.05 µM

SMILES: CC(C)=CCC/C(C)=C/CC/C(C)=C/CC1=C(O)C(=O)c2ccccc2C1=O
IC50 (HL-60 [4]): 5.41 µM | IC50 (HepG2 [5]): 14 µM | IC50 (SW480): 2.02 µM | IC50 (MCF7 [6]): 47 µM | IC50 (HT-29): 1.99 µM

SMILES: C[P+](C1=C([O-])C(=O)c2c(F)c(F)c(F)c(F)c2C1=O)(c1ccccc1)c1cc(F)cc(F)c1 (centres undefined)
IC50 (RPMI-8226): 6.4 µM | IC50 (MCF7 [7]): 4.6 µM | IC50 (HepG2 [8]): 7.1 µM

SMILES: CC(=O)N[C@H]1[C@H](OC2=C(CC=C(C)C)C(=O)c3ccccc3C2=O)O[C@H](COC(C)=O)[C@@H](OC(C)=O)[C@@H]1OC(C)=O
IC50 (HL-60 [9]): 5.3 µM

IC50 [10]: 25.5 µM | IC50 (MCF7 [11]): 27.5 µM
SMILES: CC(C)=CCCc1ccc2c(c1)C(=O)c1c(cnn1CCO)C2=O

SMILES: COc1cc(N)cc(OC)c1C1=C(C(C)=O)C(=O)c2ccccc2C1=O
IC50 (DU-145): 12.3 µM | IC50 (MCF7 [12]): 21.2 µM

SMILES: CCC/C=C/C(=O)C1=C(OC)C(=O)c2cc(OC)c(OC)cc2C1=O
IC50 (MCF7 [13]): 15 µM

SMILES: COc1ccc(NC2=CC(=O)c3cc4c(cc3C2=O)CCCC4(C)C)cc1
IC50 (Jurkat): 1.4 µM | IC50 (HeLa): 0.01 µM

SMILES: CC(C)=CC[C@@H](OC(=O)C=C(C)C)C1=CC(=O)c2c(O)ccc(O)c2C1=O [DIMETHYLACRYLSHIKONIN]
IC50 [14]: 1.2 µM

SMILES: CC(C)=CC[C@@H](OC(=O)C(C)C)C1=CC(=O)c2c(O)ccc(O)c2C1=O [ISOBUTYLSHIKONIN]
IC50 (U-937): 0.05 µM
